≈ marks a conversion by molar mass, not a printed value.
Legend:
[1] = test system: release of TNF from THP-1 cells; experiment: Cellular Assay (Protocol B): inhibition of release of TNF from LPS-stimulated THP-1 cells; assay type: cell-based; details: Homo sapiens, LPS 5 microg/mL, 4 h
Procedure: For example, the following cell-based assay was used to assess such activity:
THP-1 cells, cultured in RPMI 1640 supplemented with 10% FCS, were distributed into 24-well plates, 1 mL of a suspension of 1×10^6 cells/mL in each well. Compounds to be tested, dissolved in DMSO and diluted with the culture medium (1% final DMSO concentration) were added. Plates were incubated for 30 min at 37° C. in 5% CO2, and lipopolisaccharide (LPS 0111:B4, 5 microg/mL) was added as a stimulant. After a further 4 h incubation, cells were harvested, centrifuged (2,000 rpm, 7 min), and the surnatant was collected and freezed (-20° C.) until analysis. Analysis was run by classical ELISA methodology (monoclonal anti-TNF-a antibody, rabbit capture policlonal antibody, and peroxidated anti-rabbit antibody).

[2] = molecular target: T1, MMP-1 (human interstitial collagenase) (Homo sapiens, UniProt P03956); experiment: Biochemical Assay (Protocol A): inhibition of human collagenase, fluorimetric peptide substrate; details: MMP-1, pH 7.4, 37° C.
T1 construct: truncated recombinant enzyme encompassing residues 101-269
T1 sequence (P03956 101-269): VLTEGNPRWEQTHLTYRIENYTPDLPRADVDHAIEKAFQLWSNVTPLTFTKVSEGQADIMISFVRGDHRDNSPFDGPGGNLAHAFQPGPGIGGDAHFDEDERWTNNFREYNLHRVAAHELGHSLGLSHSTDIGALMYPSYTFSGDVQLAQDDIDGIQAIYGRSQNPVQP
From the text: (§1) As mentioned above, although low molecular weight MMP inhibitors, including hydroxamates of general formula (A), are already known, there is a strong need for better and diversified molecules for their use in medicine, that is in particular in the control or prevention of degenerative joint diseases such as rheumatoid arthritis and osteoarthritis, or in the management of multiple sclerosis, or in the treatment of invasive tumors. […] For example, the following protocol was used to assess the biochemical activity of compounds of formula (I) against MMP-1, MMP-2, and MMP-3 (respectively, human interstitial collagenase, gelatinase A, and stromelysin-1).
(§2) Human gelatinase-A (MMP-2) was obtained as pro-enzyme (72 kDa) and was activated with 1 mM 4-aminophenylmercuric acetate for 30 min at 37° C. immediately prior to use. Human stromelysin-1 (MMP-3) was obtained as a recombinant pro-enzyme isolated either from E. coli or from baculovirus infected Sf9 insect cells and activated either by heat (1 h, 55° C.) or by 5 mg/l trypsin (30 min, 37° C.) before addition of soybean trypsin inhibitor, finally removed by centrifugation.
(§3) All enzyme assays to determine values of the enzyme-inhibitor dissociation constants were performed using the peptide substrate (7-methoxycoumarin-4-yl)Acetyl-Pro-Leu-Gly-Leu-(3-[2,4-dinitrophenyl]-L-2,3-diaminopropionyl)-Ala-Arg-NH2 (Mca-Pro-Leu-Gly-Leu-Dpa-Ala-Arg--NH2) (C. G. Knight et al., FEBS Lett. 296:263-266, 1992). The enzymes cleave at the Gly-Leu bond removing the internally quenching Dpa group. The release of the highly fluorescent peptide Mca-Pro-Leu was followed fluorimetrically setting the excitation wavelength at 326 nm (bandwidth 5 nm) and the emission at 392 nm (bandwidth 20 nm).
(§4) Continuous fluorescence assay was carried out using a Perkin Elmer LS-50 Fluorescence Spectrophotometer fitted with a thermostatted four position stirring cell changer. Inhibitors were dissolved in the assay buffer ([…] Tris/HCl pH 7.4 containing 0.15 M NaCl, 10 mM CaCl2, 0.01 mM ZnCl2 and 0.05% Brij 35) thermostatted at 37° C. The reaction was started by the addition of substrate ([…]), followed by the addition of the enzyme (e.g. 1.0 nM collagenase, 0.04 nM gelatinase, or 3.0 nM stromelysin) and the increase in fluorescence was monitored over 30 min. The run was repeated at different concentrations of inhibitors in the range 0.1-10000 nM and data at inhibitor concentration in the region if their enzyme-inhibitor dissociation constants were used for calculation.
(§5) Substrate consumption was within 5% of the initial concentration and data outside this range were discarded. The Michaelis constants (Km) for the enzyme-substrate complexes is […] or greater (C. G. Knight et al., reference above), so that the factor (1+S/Km) can be approximated to unity without appreciable error.

[3] = molecular target: T2, MMP-2 (human gelatinase A) (Homo sapiens, UniProt P08253); experiment: Biochemical Assay (Protocol A): inhibition of human gelatinase A, fluorimetric peptide substrate; details: MMP-2, pH 7.4, 37° C.
T2 sequence (P08253 110-660): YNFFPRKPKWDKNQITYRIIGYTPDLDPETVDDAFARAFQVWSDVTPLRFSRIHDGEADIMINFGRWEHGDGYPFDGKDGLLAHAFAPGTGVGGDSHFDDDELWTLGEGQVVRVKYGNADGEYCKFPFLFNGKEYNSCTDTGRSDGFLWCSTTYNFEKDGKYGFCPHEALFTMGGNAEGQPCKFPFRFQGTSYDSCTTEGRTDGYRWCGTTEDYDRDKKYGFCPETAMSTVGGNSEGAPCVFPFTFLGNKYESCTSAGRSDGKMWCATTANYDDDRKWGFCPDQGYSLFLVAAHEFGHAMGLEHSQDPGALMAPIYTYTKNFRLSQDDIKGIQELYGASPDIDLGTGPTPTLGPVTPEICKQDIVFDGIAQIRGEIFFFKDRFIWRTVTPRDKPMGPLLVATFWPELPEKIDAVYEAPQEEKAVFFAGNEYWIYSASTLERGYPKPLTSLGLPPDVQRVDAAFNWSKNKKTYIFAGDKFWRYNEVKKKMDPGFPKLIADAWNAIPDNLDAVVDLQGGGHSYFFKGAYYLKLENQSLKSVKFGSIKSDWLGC
From the text: as §1, §2, §3, §4, §5

[4] = molecular target: T3, MMP-3 (human stromelysin-1) (Homo sapiens, UniProt P08254); experiment: Biochemical Assay (Protocol A): inhibition of human stromelysin-1, fluorimetric peptide substrate; details: MMP-3, pH 7.4, 37° C.
T3 construct: host or cells: E. coli or baculovirus-infected Sf9 insect cells
From the text: as §1, §2, §3, §4, §5

[5] = Aqueous solubility; assay type: physicochemical; details: water, pH 7.0, 25° C.
Procedure: Further, several compounds of formula (I), in particular when R2 is hydroxy, and when R1 is hydroxymethyl, have enhanced water solubility as compared to the vast majority of MMP inhibitors of the prior art. An aqueous solubility threshold, which may vary widely but can be roughly set in the range of 1-10 mg/mL, makes systemic administration easy, and more than often is essential to good oral bioavailability.

T3 sequence (P08254 100-477): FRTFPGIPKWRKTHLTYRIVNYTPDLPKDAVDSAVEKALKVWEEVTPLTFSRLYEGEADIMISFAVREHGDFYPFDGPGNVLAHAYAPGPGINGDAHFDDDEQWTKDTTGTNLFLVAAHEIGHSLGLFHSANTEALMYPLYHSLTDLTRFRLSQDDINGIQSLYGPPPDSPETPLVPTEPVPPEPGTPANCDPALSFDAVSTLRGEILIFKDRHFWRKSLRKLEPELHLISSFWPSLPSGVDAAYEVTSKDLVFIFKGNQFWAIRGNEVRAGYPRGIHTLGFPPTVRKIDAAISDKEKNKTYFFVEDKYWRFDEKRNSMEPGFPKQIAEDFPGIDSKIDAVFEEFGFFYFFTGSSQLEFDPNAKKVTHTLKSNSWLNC

SMILES | IC50 [1] [nM] | Ki [2] [nM] | Ki [3] [nM] | Ki [4] [nM] | inhibition at 100 µM ([1]; at 100 microM) [%] | solubility [5] [µg/mL]
CNC(=O)[C@@H](NC(=O)[C@H](CC(C)C)[C@](O)(COC1CCCCO1)C(=O)NO)C(C)(C)C (stereo partly drawn) [Example 2, [(2R,3S)-3-Hydroxy-4-hydroxyamino-2-isobutyl-3-(tetrahydro-pyran-2-yloxymethyl)succinyl]-L-tert-leucine-N-methylamide] | 5200 | – | – | – | – | –
CNC(=O)[C@H](Cc1ccccc1)NC(=O)[C@H](CC(C)C)[C@](O)(COC1CCCCO1)C(=O)NO (stereo partly drawn) [Example 5, [(2R,3S)-3-Hydroxy-4-hydroxyamino-2-isobutyl-3-(tetrahydro-pyran-2-yloxymethyl)succinyl]-L-phenylalanine-N-methylamide] | 1490 | 2.7 | 0.62 | 15 | – | –
CNC(=O)[C@H](Cc1ccccc1)NC(=O)[C@H](CC(C)C)[C@@](O)(COC1CCCCO1)C(=O)NO (stereo partly drawn) [Example 6, [(2R,3R)-3-Hydroxy-4-hydroxyamino-2-isobutyl-3-(tetrahydro-pyran-2-yloxymethyl)succinyl]-L-phenylalanine-N-methylamide] | 65400 | 67 | 23 | 430 | – | –
CNC(=O)[C@H](Cc1ccccc1)NC(=O)[C@H](CC(C)C)[C@](O)(CO)C(=O)NO [Example 7, [(2R,3S)-3-Hydroxy-4-hydroxyamino-3-hydroxymethyl-2-isobutyl-succinyl]-L-phenylalanine-N-methylamide] | – | 1.5 | 3.1 | 32 | 90 | 6000 (≈ 15.2 mM)
CNC(=O)[C@@H](NC(=O)[C@H](CC(C)C)[C@@](COC1CCCCO1)(OC1CCCCO1)C(=O)NO)C(C)(C)C (stereo partly drawn) [Example 8, [(2R,3S)-4-Hydroxyamino-2-isobutyl-3-(2-tetrahydropyranyl)oxy-3-(2-tetrahydropyranyl)oxymethylsuccinyl]-L-tert-leucine-N-methylamide] | – | 45 | 40 | 1100 | – | 10000 (≈ 18.9 mM)
CNC(=O)[C@@H](NC(=O)[C@H](CC(C)C)[C@](O)(COC(C)=O)C(=O)NO)C(C)(C)C [Example 9, [(2R,3S)-3-Acetoxymethyl-3-hydroxy-4-hydroxyamino-2-isobutyl-succinyl]-L-tert-leucine-N-methylamide] | – | 2.2 | 1.7 | 110 | – | > 9000
CC(=O)OC[C@](O)(C(=O)NO)[C@@H](CC(C)C)C(=O)N[C@H](C(=O)Nc1ccncc1)C(C)(C)C [Example 11, [(2R,3S)-3-Acetoxymethyl-3-hydroxy-4-hydroxyamino-2-isobutyl-succinyl]-L-tert-leucine-N-(4-pyridyl)amide] | – | 7.3 | 4.7 | 4.9 | – | 3400 (≈ 7.29 mM)
CC(C)C[C@@H](C(=O)N[C@H](C(=O)Nc1ccncc1)C(C)(C)C)[C@](O)(CO)C(=O)NO [Example 12, [(2R,3S)-3-Hydroxy-4-hydroxyamino-3-hydroxymethyl-2-isobutyl-succinyl]-L-tert-leucine-N-(4-pyridyl)amide] | – | 6.8 | 9.5 | 10 | – | > 10000
CNC(=O)[C@@H](NC(=O)[C@H](CC(C)C)[C@](O)(COC(=O)C(C)(C)C)C(=O)NO)C(C)(C)C [Example 13, [(2R,3S)-3-Hydroxy-4-hydroxyamino-2-isobutyl-3-(tri-methylacetoxy)methyl-succinyl]-L-tert-leucine-N-methylamide] | – | 3.4 | 6.5 | 71 | – | 1300 (≈ 2.92 mM)
CNC(=O)[C@H](Cc1ccccc1)NC(=O)[C@H](CC(C)C)C1(C(=O)NO)CC1 [Example 20, [2R-(1-Hydroxyaminocarbonyl)cyclopropyl-4-methylpentanoyl]-L-phenylalanine-N-methylamide] | – | 25 | 19 | 880 | – | 5800 (≈ 15.4 mM)
CC(C)C[C@@H](C(=O)N1CCOCC1)[C@](O)(COC(=O)c1ccccc1)C(=O)NO [Example 22, 1-[(2R,3S)-3-Benzoyoloxymethyl-3-hydroxy-4-hydroxyamino-2-isobutylsuccinyl]morpholine] | – | – | – | – | – | 1900 (≈ 4.65 mM)
CC(=O)OC[C@](O)(C(=O)NO)[C@@H](CC(C)C)C(=O)N1CCCCC1 [Example 23, 1-[(2R,3S)-3-Acetoxymethyl-3-hydroxy-4-hydroxyamino-2-isobutylsuccinyl]piperidine] | – | – | – | – | – | 5000 (≈ 14.5 mM)
CC(C)C[C@@H](C(=O)N1CCCCC1)[C@](O)(CO)C(=O)NO [Example 24, 1-[(2R,3S)-3-Hydroxy-4-hydroxyamino-3-hydroxymethyl-2-isobutyl-succinyl]piperidine] | – | – | – | – | – | > 6000
CC(C)C[C@@H](C(=O)N1CCOCC1)[C@](O)(COC(=O)C(C)(C)C)C(=O)NO [Example 25, 1-[(2R,3S)-3-Hydroxy-4-hydroxyamino-2-isobutyl-3-(trimethyl-acetoxy)methylsuccinyl]morpholine] | – | – | – | – | – | > 8000

— patent US6194451A, “Matrix metalloproteinase inhibitors” (Pharmacia & Upjohn S.p.A., priority 1997, dated 2001)
